# Values quoted from earlier work as cited in patent US20090082464A1, “EXTERNALLY MASKED NEOPENTYL SULFONYL ESTER CYCLIZATION RELEASE PRODRUGS OF ACAMPROSATE, COMPOSITIONS THEREOF, AND METHODS OF USE” (priority 2007, published 2009).
# What was measured:
# cocaine conditioned mice = conditions: 100 mg/kg for 3 days
structure (smiles),measurement,setting,value
"CC(=O)NCCCS(=O)(=O)O [acamprosate, 3-(Acetylamino)propylsulfonic acid]",steady-state plasma concentration,doses of about 1-2 gm per day,370 to 640 ng/mL
same,time post-dose at which steady-state plasma concentration occurs,doses of about 1-2 gm per day,3 to 8 h
same,oral bioavailability of acamprosate,"humans, oral",about 11%
same,relapse-like behavior,cocaine conditioned mice,attenuated relapse-like behavior
